Laboratory results as given in PubChem BioAssay (NCI).
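Dose response: 5 concentrations. Exposure: 48 h. Format: 96-well plates. Endpoint: linear interpolation; highest concentration if not reached. TGI: concentration producing complete growth inhibition.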

Key:
Experiment in all cases: NCI anticancer screen, dose series, 48 h
[1] = test system: 786-0 renal
[2] = test system: A498 renal
[3] = test system: A549 NSCLC
[4] = test system: BT-549 breast
[5] = test system: CAKI-1 renal
[6] = test system: CCRF-CEM leukemia
[7] = test system: COLO 205 colon
[8] = test system: DU-145 prostate
[9] = test system: EKVX NSCLC
[10] = test system: HCC-2998 colon
[11] = test system: HCT-116 colon
[12] = test system: HL-60(TB) leukemia
[13] = test system: HOP-62 NSCLC
[14] = test system: HS 578T breast
[15] = test system: HT29 colon
[16] = test system: IGROV1 ovarian
[17] = test system: K-562 leukemia
[18] = test system: M14 melanoma
[19] = test system: MALME-3M melanoma
[20] = test system: MCF7 breast
[21] = test system: MDA-MB-231 breast
[22] = test system: MDA-MB-435
[23] = test system: MDA-N
[24] = test system: MOLT-4 leukemia
[25] = test system: NCI-H226 lung
[26] = test system: NCI-H23 lung
[27] = test system: NCI-H522 lung
[28] = test system: NCI/ADR-RES ovarian
[29] = test system: OVCAR-3 ovarian
[30] = test system: OVCAR-5 ovarian
[31] = test system: OVCAR-8 ovarian
[32] = test system: PC-3 prostate
[33] = test system: RXF 393 renal
[34] = test system: SF-268 CNS
[35] = test system: SF-295 CNS
[36] = test system: SF-539 CNS
[37] = test system: SK-MEL-2 melanoma
[38] = test system: SK-MEL-5 melanoma
[39] = test system: SK-OV-3 ovarian
[40] = test system: SN12C renal
[41] = test system: SNB-75 CNS
[42] = test system: T-47D breast
[43] = test system: TK-10 renal
[44] = test system: U251 CNS
[45] = test system: UACC-257 melanoma
[46] = test system: UACC-62 melanoma
[47] = test system: ACHN renal
[48] = test system: HCT-15 colon
[49] = test system: HOP-92 NSCLC
[50] = test system: KM12 colon
[51] = test system: LOX IMVI melanoma
[52] = test system: NCI-H460 lung
[53] = test system: OVCAR-4 ovarian
[54] = test system: SK-MEL-28 melanoma
[55] = test system: SNB-19 CNS
[56] = test system: SW-620 colon
[57] = test system: UO-31 renal
[58] = test system: RPMI-8226 leukemia
[59] = test system: SR leukemia

Structure (SMILES): ClC(Cl)(Cl)C1CCOC1n1nnc2ccccc21 (configuration not stated)
- TGI [1]: > 100 µM
- TGI [2]: > 100 µM
- TGI [3]: > 100 µM
- TGI [4]: 86 µM
- TGI [5]: > 100 µM
- TGI [6]: > 100 µM
- TGI [7]: > 100 µM
- TGI [8]: > 100 µM
- TGI [9]: > 100 µM
- TGI [10]: > 100 µM
- TGI [11]: > 100 µM
- TGI [12]: 58.2 µM
- TGI [13]: > 100 µM
- TGI [14]: > 100 µM
- TGI [15]: > 100 µM
- TGI [16]: > 100 µM
- TGI [17]: 63.9 µM
- TGI [18]: > 100 µM
- TGI [19]: > 100 µM
- TGI [20]: > 100 µM
- TGI [21]: > 100 µM
- TGI [22]: > 100 µM
- TGI [23]: > 100 µM
- TGI [24]: 73.8 µM
- TGI [25]: > 100 µM
- TGI [26]: > 100 µM
- TGI [27]: > 100 µM
- TGI [28]: > 100 µM
- TGI [29]: > 100 µM
- TGI [30]: > 100 µM
- TGI [31]: > 100 µM
- TGI [32]: > 100 µM
- TGI [33]: > 100 µM
- TGI [34]: > 100 µM
- TGI [35]: > 100 µM
- TGI [36]: > 100 µM
- TGI [37]: > 100 µM
- TGI [38]: > 100 µM
- TGI [39]: > 100 µM
- TGI [40]: > 100 µM
- TGI [41]: 54.3 µM
- TGI [42]: > 100 µM
- TGI [43]: > 100 µM
- TGI [44]: > 100 µM
- TGI [45]: > 100 µM
- TGI [46]: > 100 µM

Structure (SMILES): CNc1nnc(CCCCCCCCc2nnc(NC)o2)o1
- TGI [1]: 47 µM
- TGI [2]: > 100 µM
- TGI [3]: > 100 µM
- TGI [47]: > 100 µM
- TGI [4]: > 100 µM
- TGI [5]: 31.3 µM
- TGI [6]: 43 µM
- TGI [7]: > 100 µM
- TGI [8]: > 100 µM
- TGI [9]: > 100 µM
- TGI [11]: 41.9 µM
- TGI [48]: > 100 µM
- TGI [12]: > 100 µM
- TGI [13]: 78 µM
- TGI [49]: > 100 µM
- TGI [15]: 90.8 µM
- TGI [16]: > 100 µM
- TGI [17]: > 100 µM
- TGI [50]: > 100 µM
- TGI [51]: 38.5 µM
- TGI [18]: > 100 µM
- TGI [20]: 38.3 µM
- TGI [21]: > 100 µM
- TGI [22]: > 100 µM
- TGI [23]: > 100 µM
- TGI [24]: > 100 µM
- TGI [25]: > 100 µM
- TGI [26]: > 100 µM
- TGI [52]: > 100 µM
- TGI [28]: > 100 µM
- TGI [29]: 44.9 µM
- TGI [53]: > 100 µM
- TGI [30]: > 100 µM
- TGI [31]: > 100 µM
- TGI [32]: > 100 µM
- TGI [33]: > 100 µM
- TGI [35]: > 100 µM
- TGI [36]: > 100 µM
- TGI [37]: > 100 µM
- TGI [54]: > 100 µM
- TGI [38]: > 100 µM
- TGI [39]: > 100 µM
- TGI [40]: > 100 µM
- TGI [55]: > 100 µM
- TGI [41]: > 100 µM
- TGI [56]: > 100 µM
- TGI [43]: > 100 µM
- TGI [44]: 63.7 µM
- TGI [45]: > 100 µM
- TGI [57]: > 100 µM

Structure (SMILES): O=c1[nH]nc(-c2ccccc2)n1/N=C/c1ccc([N+](=O)[O-])o1
- TGI [1]: > 31.7 µM
- TGI [2]: 23 µM
- TGI [3]: 21.9 µM
- TGI [47]: 14.4 µM
- TGI [5]: 28.2 µM
- TGI [6]: 19.6 µM
- TGI [7]: 8.47 µM
- TGI [8]: 17.5 µM
- TGI [9]: 24 µM
- TGI [10]: 12.4 µM
- TGI [11]: 5.55 µM
- TGI [48]: 17.3 µM
- TGI [12]: > 44.4 µM
- TGI [13]: 19.7 µM
- TGI [49]: > 24.1 µM
- TGI [14]: > 100 µM
- TGI [15]: > 48.7 µM
- TGI [16]: 16.9 µM
- TGI [17]: > 77.1 µM
- TGI [50]: 23.2 µM
- TGI [51]: > 100 µM
- TGI [18]: 11.2 µM
- TGI [19]: 9.38 µM
- TGI [20]: 7.21 µM
- TGI [21]: 19.5 µM
- TGI [22]: 10.9 µM
- TGI [23]: 12 µM
- TGI [24]: > 47.1 µM
- TGI [25]: 37.5 µM
- TGI [52]: > 22.6 µM
- TGI [27]: 6.83 µM
- TGI [28]: > 26 µM
- TGI [29]: 15.5 µM
- TGI [53]: 16.7 µM
- TGI [30]: 31.5 µM
- TGI [32]: > 30.3 µM
- TGI [58]: 12.8 µM
- TGI [33]: 2.63 µM
- TGI [34]: > 28 µM
- TGI [35]: > 55.1 µM
- TGI [36]: 15.7 µM
- TGI [37]: 11.6 µM
- TGI [54]: 10.3 µM
- TGI [38]: 28.9 µM
- TGI [39]: 65.6 µM
- TGI [40]: 13.5 µM
- TGI [55]: > 47.2 µM
- TGI [41]: > 70.2 µM
- TGI [59]: > 100 µM
- TGI [56]: 15.2 µM
- TGI [42]: > 96.4 µM
- TGI [43]: > 100 µM
- TGI [44]: 18.3 µM
- TGI [45]: 11.9 µM
- TGI [46]: 11.2 µM
- TGI [57]: 12.9 µM
